In PMC12445440 (Journal of Medical Virology, 2025):

Assays:
ZIKV^Br [1] = experiment: Virus yield reduction assay, ZIKV^Br on Huh-7 cells; type: cell-based, Zika virus
ZIKV^Br [2] = experiment: Virus yield assay, ZIKV^Br on VeroE6 cells; type: cell-based; settings: Zika virus, Vero C1008, 95% CI in brackets
ZIKV^Br [3] = experiment: Virus yield assay, ZIKV^Br on Vero TMPRSS cells; type: cell-based; settings: Zika virus, 95% CI in brackets
ZIKV^Br [4] = experiment: Virus yield assay, ZIKV^Br on A549 cells; type: cell-based; settings: Zika virus, 95% CI in brackets
[5] = Cytotoxicity by WST-8, VeroE6 cells; type: cell-based; settings: simian, 95% CI in brackets
Method: (§1) Cytotoxic/cytostatic effects were evaluated in uninfected cells by WST‐8 (Orangu, Cell Guidance Systems): 1 × 10^4 cells/well in a 96‐well plate were incubated in the presence of threefold serial dilutions of compounds, from 0.30 to 218 μM, for 48 h. Medium was replaced with 50 μL of 10% WST‐8, in DMEM, 2% FBS. Following a 1‐h incubation at 37°C, optical density (OD) in wells was measured at 450 nm using Varioskan LUX (ThermoFisher Scientific). CC50 was calculated using the formula: %viability=100×(ODcompound/ODuntreated control) where ODcompound and ODuntreated are the OD of the cells treated with compound or DMSO, respectively.

[6] = Cytotoxicity by WST-8, HMC3 cells; type: cell-based; settings: human, 95% CI in brackets
Method: as §1

ZIKV^Ug = experiment: microbe, parasite or virus in culture; type: cell-based; settings: Zika virus; ZIKV^Ug (Huh-7); 95% CI in brackets
USUV = experiment: microbe, parasite or virus in culture; type: cell-based; settings: Usutu virus; USUV (Huh-7); 95% CI in brackets
VSV = experiment: microbe, parasite or virus in culture; type: cell-based; settings: Vesicular stomatitis virus, Huh-7
VV-IND-G = experiment: microbe, parasite or virus in culture; type: cell-based, Vaccinia virus recombinant for VSV-Indiana G protein; settings: Orthopoxvirus vaccinia, Huh-7
HSV2 = experiment: Plaque reduction assay, HSV2 on A549 cells; type: cell-based, herpes simplex virus 2; settings: Human alphaherpesvirus 2
ZIKV^Br [7] = experiment: Time-of-addition (TOA) experiments, ZIKV^Br in Huh-7 cells; type: cell-based, Zika virus; settings: harvest 48 h p.i.
Method: PS1097 was added at 6 μM at 0, 2, 6, 12, 24, and 36 h p.i. SOF was used as a reference compound at 15 μM. At 48 h p.i., viral proteins were determined by western blot or by qRT‐PCR in cell lysates.
To elucidate the mechanism of PS1097 antiviral action, TOA experiments were conducted (Figure 4A). ZIKV^Br replication kinetics was assessed by quantifying viral genomic RNA and protein inside Huh‐7 cells at the times p.i. shown in Figure 4A. Viral RNA was detectable as of ~12 h p.i. (Figure 4D), whereas viral protein was visible after 24 h p.i. (Figure 4B,C). In parallel, cells were exposed to viral inoculum for 2 h. […] Then, they were harvested at 48 h p.i. Viral RNA in cells was measured by qRT‐PCR and inhibition relative to DMSO‐treated cells was calculated, as described by (Figure 4G).
(§2) Figure 4 (A) Experimental design of the Time Of Addition (TOA) assay for PS1097 and SOF. (B) ZIKV replication kinetics was determined on Huh‐7 cells infected at MOI 1for 2 h by western blot cell lysates prepared at the times shown. ZIKV NS5 and GAPDH were monitored with the antibodies in Supporting Information: Table S1. (C) Quantitative analysis of the results in B). (D) qRT‐PCR quantification of ZIKV RNA was carried out in ZIKV‐infected cells lysed at the times indicated on the x axis. (E) western blot of lysates of Huh‐7 cells harvested at 48 h p.i. where treatment with PS1097 or SOF was started as by A). (F) Quantitative analysis of the results in E). (G) ZIKV RNA was quantified in lysates of cells harvested at 48 h p.i. where treatment with PS1097 (red line) or SOF (green line) was started at the times p.i. indicated on the x axis. (H) Combined antiviral activity of PS1097 with SOF against ZIKV. Huh‐7 cells were infected with ZIKV then treated with PS1097 or SOF, alone or in combination, at the indicated concentrations. After 48 h p.i., supernatants were harvested and titrated for ZIKV yield. Two‐dimensional representation of dose–response interaction matrix was determined in synergyfinder.org. Color gradient indicates viral yield inhibition score (red‐highest score). […]

ZIKV^Br [8] = experiment: Synergism between PS1097 and SOF, ZIKV^Br yield; type: cell-based, Zika virus
Method: as §2, with “score). (I) Three‐dimensional surface plot representing synergy score (Z axis) for each compound combination.” for “score).”

ZIKV^Br [9] = tested on: ZIKV^Br
BVDV = settings: previously published data; Na = no detected antiviral activity; ref [18]-[22] of main text, [3] of supplement for PS1086, PS1100, PS1101; cited from earlier work
Vero76 = tested on: Vero76; set-up: method as in earlier work; settings: previously published data; ref [18]-[22] of main text, [3] of supplement for PS1086, PS1100, PS1101; cited from earlier work
[10] = Cytotoxicity by WST-8, uninfected Huh-7 cells; settings: human
RTN4 = experiment: Western blot of ER proteins in Huh-7 cells: RTN4; settings: 6 μM PS1097, 48 h
TMEM41B = experiment: Western blot of ER proteins in Huh-7 cells: TMEM41B; settings: 6 μM PS1097, 48 h

In the case of `O=c1[nH]c2cc3cccnc3c(Cl)c2nc1-c1cccs1` [PS1097, 5‐chloro‐3‐(thiophen‐2‐yl) pyrido[2,3‐g] quinoxalin‐2(1H)‐one], the EC50 (ZIKV^Br [1]; ZIKV^Br on Huh-7 cells, viral yield reduction, 48 h, 95% confidence interval in brackets) is reported as 0.69 µM, the EC50 (ZIKV^Br [1]; Zika virus, Huh-7, 48 h, ZIKV^Br on Huh-7 cells, viral yield reduction, 48 h, 95% confidence interval in brackets) is reported as 0.6 µM and the EC50 (ZIKV^Br [1]; Zika virus, Huh-7, summary value of the discussion for Flaviviruses, read-out: EC50 against Flaviviruses) is reported as roughly 0.7 µM. The EC50 (ZIKV^Br [2]) was 1.34 µM, the EC50 (ZIKV^Br [3]) was 2.66 µM and the EC50 (ZIKV^Br [4]) was 44.6 µM. It also gave a CC50 at 48 h ([5]; VeroE6 cells, VeroE6 cells (TOSV row of Table 2)) of 575 µM, a CC50 at 48 h ([5]; VeroE6 cells (ZIKV^Br row of Table 2)) of 126 µM and a CC50 at 48 h [6] of 294 µM. It also gave an EC50 (ZIKV^Ug) of 1.29 µM, an EC50 (USUV) of 0.86 µM and an EC50 (VSV) greater than 50 µM. The EC50 (VV-IND-G) was 1.73 µM, the EC50 (HSV2) was greater than 50 µM and the “Time of addition up to which viral protein expression is suppressed” value (ZIKV^Br [7]; Huh-7, ZIKV^Br MOI 1, 10x EC50 (6 μM)) was “up to 12 h p.i”. The “Time of addition giving the strongest inhibition” value (ZIKV^Br [7]; Huh-7, ZIKV^Br MOI 1, 10x EC50 (PS1097 6 μM, SOF 15 μM)) was 0–6 h p.i, the “Interaction of PS1097 with SOF (synergy)” value (ZIKV^Br [8]; combined treatment PS1097 2.0–0.125 μM with SOF 5.0–0.39 μM, 48 h p.i., SynergyFinder) was “No synergistic effects” and the “Interaction of PS1097 with SOF at the highest concentrations” value (ZIKV^Br [8]; combined treatment, highest concentrations (PS1097 up to 2 μM, SOF up to 5 μM)) was “slight antagonistic effect”. For the same compound, the “Selection of resistant ZIKV variants” value (ZIKV^Br [9]; ZIKV^Br passaged weekly on Huh-7 from 0.6 μM PS1097, at least four attempts) was “no resistant strains”, the “Passage at which no viral yield was found” value (ZIKV^Br [9]; ZIKV^Br passaged weekly on Huh-7 in the presence of PS1097) was 9 passage and the EC50 (BVDV) was 5 µM. The CC50 (Vero76) was greater than 100 µM, the CC50 at 48 h [10] was 229 µM and the “RTN4 protein content (western blot)” value (RTN4) was “virtually unchanged”. The “TMEM41B protein content (western blot)” value (TMEM41B) was “virtually unchanged”.
